From patent US12233041B2, “Disulfonate stilbenes for use in the treatment of proliferative diseases” (UNIVERSITÉ DE NANTES, priority 2018, dated 2025) come the findings set out here.

Test [1] deals with DU-145 cell line. Put plainly: Clonogenicity test, sensitizing effect with an antineoplastic drug. The conditions noted are these: Homo sapiens, DU-145, B-2 20 μM. The format is cell-based. As for the experimental part:
Clonogenicity tests are carried out against several model cell lines derived from cancer including prostate cancer (DU-145). Cells are exposed to an anti-cancer agent targeting DNA (cisplatin or camptothecin). Damaged cells are counted and seeded in the presence or in the absence of B-2 in triplicate culture plates. After about two weeks of incubation at 37° C. the number of clones formed is counted. Each cell capable of repairing its lesions will then form a clone. After counting, the percentage of survival will be calculated relative to the control condition for which it is considered that there is 100% survival.
The main interest of RAD51 protein inhibitors is the sensitization of chemo-resistant or radio-resistant cancerous cell lines. Clonogenicity evaluation was carried out on the DU-145 cell line treated with cisplatin treatment in the presence or in the absence of disulfonate stilbene B-2 (RAD51 protein inhibitor).
DU-145 cell line was treated with camptothecin in the presence or in the absence of disulfonate stilbene B-2 (RAD51 protein inhibitor) and the clonogenic cell survival was determined.

In test [2] the target is T1, HsRad51 (Homo sapiens, UniProt Q06609).
T1 sequence (Q06609 1-339): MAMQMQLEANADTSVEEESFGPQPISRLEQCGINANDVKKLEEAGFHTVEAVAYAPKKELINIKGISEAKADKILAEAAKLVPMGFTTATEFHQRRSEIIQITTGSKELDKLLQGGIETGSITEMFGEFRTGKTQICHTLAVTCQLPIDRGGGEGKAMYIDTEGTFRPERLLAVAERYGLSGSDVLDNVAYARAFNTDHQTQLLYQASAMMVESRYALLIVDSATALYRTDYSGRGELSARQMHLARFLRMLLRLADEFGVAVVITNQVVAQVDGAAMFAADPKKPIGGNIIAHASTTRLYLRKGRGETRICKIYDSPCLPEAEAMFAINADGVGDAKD
Put plainly: RAD51 oligomerization by SDS-PAGE gel after crosslink. The class given is biochemical. The following applies: 2.5 μM HsRad51, disuccinimidyl suberate crosslink, SDS-PAGE/Western blot; FIG. 1. As for the experimental part:
The reaction was performed at room temperature. 2.5 μm HsRad51 was incubated with the indicated concentrations of tested compounds for 10 min in a buffer containing 20 mm sodium phosphate, 50 mm NaCl, 1 mm MgCl 2, and 1 mm ATP. The cross-linking reactions were initiated by the addition of disuccinimidyl suberate (50 μm) and allowed to proceed for 30 min. Reactions were quenched by the addition of Tris-HCl (pH 7.5, final concentration: 50 mm) followed by subsequent incubations for 15 min. The products were then separated by 12% SDS polyacrylamide gel electrophoresis and detected by Western blot with mouse monoclonal anti-Rad51 antibody (NeoMarkers) and anti-mouse Alexa-Fluor 700-conjugated secondary antibody (Molecular Probes, Eugene, OR). The cross-linked dimer was quantified by an Odyssey Infrared Imaging System scanner (Li-Cor Biosciences) (Martinez, S. F. et al., “Targeting human Rad51 by specific DNA aptamers induces inhibition of homologous recombination”, Biochimie, December 2010, Vol. 92, No. 12, pp. 1832-1838).
The SDS-PAGE electrophoresis after crosslink maintains and immobilizes the RAD51 protein complexes and thus allows visualization of the degree of oligomerization (polymer formation) of the RAD51 protein. The effect of RAD51 protein inhibitors B-1, B-2, B-3, DIDS and X-4 on this key step of RAD51 protein recombinase activity has thus been evaluated. The results are presented on FIG. 1.
A general note: A western blot detects proteins with antibodies after separation by electrophoresis.

The target in test [3] is T2, Rad51 (Homo sapiens, UniProt Q06609).
T2 sequence (Q06609 1-339): T1 sequence (Q06609 1-339)
Put plainly: DNA invasion by D-loop assay (strand exchange). The class given is biochemical. The conditions noted are these: 0.5 μM Rad51, 1 μM 100-ssDNA, 37° C.; read-out: IC50 (RAD51 protein inhibition, D-loop formation). The procedure:
Labeled 100-ssDNA** (1 μM) was incubated with 0.5 μM Rad51 in presence or absence of the indicated amounts of the corresponding molecule in 10 μL of standard reaction buffer containing 20 mM Tris-HCl (pH 8), 1 mM ATP, 1 mM DTT, 1 mM CaCl2) at 37° C. for 20 min. The reaction was initiated by adding supercoiled pPB4.3 DNA (200 μM in bp). After incubation of 30 min at 37° C., the reactions were stopped and deproteinized by a stop solution (10 mM Tris-HCl pH 8, 10 mM MgCl2, 1% SDS, and 1 mg/mL proteinase K. The reaction mixtures were further incubated for 15 min at 37° C. After adding 5-fold loading dye (0.05% bromophenol blue, 8% glycerol, 1 mM EDTA), the reaction products were separated by electrophoresis on 1% agarose gel. The electrophoresis was carried out in 0.5×TAE buffer (20 mM Tris, 10 mM acetic acid and 1 mM EDTA) at 100 V for 2 h. The labeled products (100-ssDNA** and D-loop) were visualized and quantified by the detection of the IRD-700 dye with the 700 nm infrared fluorescent detection channel of an Odyssey Infrared Imager (LI-COR) (Normand, A. et al., Biochemical Pharmacology, October 2014, Vol. 91, No. 3, pp. 293-300).
The “D-loop” in vitro test allows the quantification of the formation of the strand exchange structure (D-loop) and thus the determination of the inhibitory power of a molecule during the strand exchange step of the recombinase mechanism. IC50 measuring the RAD51 protein inhibition in presence of compounds A-1 to A-5, […] and DIDS are then calculated.

SMILES strings stand for the structures. Entries after “also recorded” stand apart in the source; their conditions may differ. Read-outs that look alike come from different tables or passages of the source.

One may read the IC50 as the concentration that inhibits the measured activity by half. Regarding `N#Cc1ccc(/C=C/c2ccc(C#N)cc2S(=O)(=O)[O-])c(S(=O)(=O)[O-])c1.[Na+].[Na+]` [B-2, Sodium (E)-6,6′-(ethene-1,2-diyl)bis(3-cyanobenzenesulfonate)], the percent decrease of IC50 at 20 µM was approximately 90% in test [1] (read-out: decrease of growth inhibition IC50 for camptothecin in presence of B-2) and approximately 40% in test [1] (read-out: decrease of growth inhibition IC50 for cisplatin in presence of B-2). The “oligomerization state of RAD51 protein” value in test [2] is listed as “significant reduction; also recorded: very strongly diminished”. The IC50 in test [3] was 5 µM.
